Values of other authors as cited in patent US20260144769A1, “4-PHENYLBUTYRATE RESTORED GABA UPTAKE AND REDUCED SEIZURES IN SLC6A1 VARIANT-MEDIATED DISORDERS” (Vanderbilt University, priority 2022, published 2026).

Settings: SLC6A1 mutation mediated disorders; cited from earlier work

## CCCC(CCC)C(=O)O [Valproic acid]
  cognition: could not improve cognition
  seizure control: control seizures
